Assay results reported in patent publication US20220089575A1, “FARNESOID X RECEPTOR AGONISTS AND USES THEREOF” (Metacrine, Inc., priority 2017, published 2022).

biological target: T1, hFXR (Homo sapiens, UniProt Q96RI1); test: In Vitro FXR Assay (TK): TK-ECRE-luc reporter in transfected CV-1 cells; assay type: cell-based; details: 18 hrs, luminescence, maximum efficacy of <25% of the Fexarmine control classified as '+'
T1 construct: expressed in transfected cells; host or cells: CV-1 cells
T1 sequence (Q96RI1 1-486): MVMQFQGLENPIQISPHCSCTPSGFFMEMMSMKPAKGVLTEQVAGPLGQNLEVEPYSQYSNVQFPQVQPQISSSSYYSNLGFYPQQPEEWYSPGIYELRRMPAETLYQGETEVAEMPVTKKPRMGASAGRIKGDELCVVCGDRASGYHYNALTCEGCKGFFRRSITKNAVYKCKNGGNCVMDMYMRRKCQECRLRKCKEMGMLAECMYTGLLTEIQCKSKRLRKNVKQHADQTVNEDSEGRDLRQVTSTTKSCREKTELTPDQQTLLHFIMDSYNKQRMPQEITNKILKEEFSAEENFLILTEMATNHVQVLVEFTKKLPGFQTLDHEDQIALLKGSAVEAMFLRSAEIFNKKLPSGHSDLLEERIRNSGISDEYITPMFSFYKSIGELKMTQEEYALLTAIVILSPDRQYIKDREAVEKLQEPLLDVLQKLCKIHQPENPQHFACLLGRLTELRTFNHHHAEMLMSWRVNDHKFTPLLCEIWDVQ
T1 sequence (P19793 1-462 partner): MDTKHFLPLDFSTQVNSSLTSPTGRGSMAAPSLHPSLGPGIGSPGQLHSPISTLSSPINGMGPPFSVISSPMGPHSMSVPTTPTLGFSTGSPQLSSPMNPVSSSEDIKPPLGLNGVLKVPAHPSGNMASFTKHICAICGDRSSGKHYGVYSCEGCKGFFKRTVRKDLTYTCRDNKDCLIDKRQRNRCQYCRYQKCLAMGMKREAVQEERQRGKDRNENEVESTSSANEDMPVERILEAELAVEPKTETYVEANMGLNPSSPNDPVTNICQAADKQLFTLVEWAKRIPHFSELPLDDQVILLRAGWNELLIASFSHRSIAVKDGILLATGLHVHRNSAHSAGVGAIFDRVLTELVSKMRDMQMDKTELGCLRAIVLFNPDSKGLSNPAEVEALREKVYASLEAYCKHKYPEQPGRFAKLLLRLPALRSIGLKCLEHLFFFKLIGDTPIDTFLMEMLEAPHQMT
Procedure, shortened: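 CV-1, transient co-transfection: hFXR + hRXR + TK-ECRE-luc + pCMX-YFP; charcoal-stripped serum. 18 h post-transfection, DMSO serial dilutions of cpd added; 18 h incubation; lysis, luminescence.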

Compound | EC50 [nM]
COc1ccc([C@H]2CC[C@H](CN(c3cccc(-c4cnc(C5CC5)s4)c3)C(=O)[C@H]3CC[C@H](NC(=O)CNS(C)(=O)=O)CC3)CC2)cc1C [Compound 30.06, trans-N-(3-(2-Cyclopropylthiazol-5-yl)phenyl)-N-((trans-4-(4-methoxy-3-methylphenyl)cyclohexyl)methyl)-4-(2-(methylsulfonamido)acetamido) cyclohexanecarboxamide] | ≤ 250
COC(=O)NCC(=O)N[C@H]1CC[C@H](C(=O)N(C[C@H]2CC[C@H](c3ccc(OC)c(C)c3)CC2)c2cccc(-c3cnn(C4CC4)c3)c2)CC1 [Compound 31, Methyl (2-((trans-4-((03-(1-cyclopropyl-1H-pyrazol-4-yl)phenyl)((trans-4-(4-methoxy-3-methylphenyl)cyclohexyl)methyl)carbamoyl)cyclohexyl)amino)-2-oxoethyl)carbamate] | ≤ 250
COc1ccc([C@H]2CC[C@H](CN(c3cccc(-c4cnn(C5CC5)c4)c3)C(=O)[C@H]3CC[C@H](NC(=O)CNC(C)=O)CC3)CC2)cc1C [Compound 31.01, trans-4-(2-Acetamidoacetamido)-N-(3-(1-cyclopropyl-1H-pyrazol-4-yl)phenyl)-N-((trans-4-(4-methoxy-3-methylphenyl)cyclohexyl)methyl)cyclohexanecarboxamide] | ≥ 1000
COc1ccc([C@H]2CC[C@H](CN(c3cccc(-c4cnn(C5CC5)c4)c3)C(=O)[C@H]3CC[C@H](NC(=O)CS(C)(=O)=O)CC3)CC2)cc1C [Compound 31.02] | 250 to 1000
COc1ccc([C@H]2CC[C@H](CN(c3cccc(-c4cnn(C5CC5)c4)c3)C(=O)[C@H]3CC[C@H](NC(=O)CNS(C)(=O)=O)CC3)CC2)cc1C [Compound 31.03, trans-N-(3-(1-Cyclopropyl-1H-pyrazol-4-yl)phenyl)-N-((trans-4-(4-methoxy-3-methylphenyl)cyclohexyl)methyl)-4-(2-(methylsulfonamido)acetamido) cyclohexane carboxamide] | ≥ 1000
COc1ccc([C@H]2CC[C@H](CN(c3cccc(-c4cnn(C5CC5)c4)c3)C(=O)[C@H]3CC[C@H](NC(=O)C[S+](C)[O-])CC3)CC2)cc1C (stereo partly drawn) [Compound 31.04, trans-N-(3-(1-Cyclopropyl-1H-pyrazol-4-yl)phenyl)-N-((trans-4-(4-methoxy-3-methylphenyl)cyclohexyl)methyl)-4-(2-(methylsulfinyl)acetamido) cyclohexanecarboxamide] | 250 to 1000
COC(=O)NCC(=O)N[C@H]1CC[C@H](C(=O)N(C[C@H]2CC[C@H](c3ccc(OC)c(C)c3)CC2)c2cccc(-c3cnc(C4CC4)s3)c2)CC1 [Compound 31.05, Methyl (2-((trans-4-((3-(2-cyclopropylthiazol-5-yl)phenyl)((trans-4-(4-methoxy-3-methylphenyl)cyclohexyl)methyl)carbamoyl)cyclohexyl)amino)-2-oxoethyl)carbamate] | ≤ 250
COc1ccc([C@H]2CC[C@H](CN(c3cccc(-c4cnc(C5CC5)s4)c3)C(=O)[C@H]3CC[C@H](NC(=O)CN(C)C)CC3)CC2)cc1C [Compound 31.06, trans-N-(3-(2-Cyclopropylthiazol-5-yl)phenyl)-4-(2-(dimethylamino)acetamido)-N-((trans-4-(4-methoxy-3-methylphenyl)cyclohexyl)methyl)cyclohexanecarboxamide] | ≤ 250
COc1ccc([C@H]2CC[C@H](CN(c3cccc(-c4cnc(C5CC5)s4)c3)C(=O)[C@H]3CC[C@H](NC(=O)CN)CC3)CC2)cc1C [Compound 31.07, trans-4-(2-Aminoacetamido)-N-(3-(2-cyclopropylthiazol-5-yl)phenyl)-N-((trans-4-(4-methoxy-3-methylphenyl)cyclohexyl)methyl) cyclohexanecarboxamide] | 250 to 1000
CNCC(=O)N[C@H]1CC[C@H](C(=O)N(C[C@H]2CC[C@H](c3ccc(OC)c(C)c3)CC2)c2cccc(-c3cnc(C4CC4)s3)c2)CC1 [Compound 31.08, trans-N-(3-(2-Cyclopropylthiazol-5-yl)phenyl)-N-((trans-4-(4-methoxy-3-methylphenyl)cyclohexyl)methyl)-4-(2-(methylamino)acetamido) cyclohexanecarboxamide] | ≤ 250
COc1ccc([C@H]2CC[C@H](CN(c3cccc(-c4cnc(C5CC5)s4)c3)C(=O)[C@H]3CC[C@H](NC(=O)CNC(C)=O)CC3)CC2)cc1C [Compound 31.09, trans-4-(2-Acetamidoacetamido)-N-(3-(2-cyclopropylthiazol-5-yl)phenyl)-N-((trans-4-(4-methoxy-3-methylphenyl)cyclohexyl)methyl)cyclohexanecarboxamide] | ≤ 250
COc1ccc([C@H]2CC[C@H](CN(c3cccc(-c4cnc(C5CC5)s4)c3)C(=O)[C@H]3CC[C@H](NC(=O)CSC)CC3)CC2)cc1C [Compound 31.10, trans-N-(3-(2-Cyclopropylthiazol-5-yl)phenyl)-N-((trans-4-(4-methoxy-3-methylphenyl)cyclohexyl)methyl)-4-(2-(methylthio)acetamido) cyclohexanecarboxamide] | ≤ 250
COc1ccc([C@H]2CC[C@H](CN(c3cccc(-c4cnc(C5CC5)s4)c3)C(=O)[C@H]3CC[C@H](NC(=O)C[S+](C)[O-])CC3)CC2)cc1C (stereo partly drawn) [Compound 31.11, trans-N-(3-(2-Cyclopropylthiazol-5-yl)phenyl)-N-((trans-4-(4-methoxy-3-methylphenyl)cyclohexyl)methyl)-4-(2-(methylsulfinyl)acetamido) cyclohexanecarboxamide] | ≤ 250
COc1ccc([C@H]2CC[C@H](CN(c3cccc(-c4cnc(C5CC5)s4)c3)C(=O)[C@H]3CC[C@H](NC(=O)CS(C)(=O)=O)CC3)CC2)cc1C [Compound 31.12, trans-N-(3-(2-Cyclopropylthiazol-5-yl)phenyl)-N-((trans-4-(4-methoxy-3-methylphenyl)cyclohexyl)methyl)-4-(2-(methylsulfonyl)acetamido) cyclohexanecarboxamide] | ≤ 250
COc1ccc([C@H]2CC[C@H](CN(c3cccc(-c4cnc(C5CC5)s4)c3)C(=O)[C@H]3CC[C@H](NC(=O)CC[S+](C)[O-])CC3)CC2)cc1C (stereo partly drawn) [Compound 31.13, trans-N-(3-(2-Cyclopropylthiazol-5-yl)phenyl)-N-((trans-4-(4-methoxy-3-methylphenyl)cyclohexyl)methyl)-4-(3-(methylsulfinyl)propanamido) cyclohexanecarboxamide] | 250 to 1000
COc1ccc([C@H]2CC[C@H](CN(c3cccc(-c4cnc(C5CC5)s4)c3)C(=O)[C@H]3CC[C@H](NC(=O)CCS(C)(=O)=O)CC3)CC2)cc1C [Compound 31.14, trans-N-(3-(2-Cyclopropylthiazol-5-yl)phenyl)-N-((trans-4-(4-methoxy-3-methylphenyl)cyclohexyl)methyl)-4-(3-(methylsulfonyl)propanamido) cyclohexanecarboxamide] | ≤ 250
COc1ccc([C@H]2CC[C@H](CN(c3cccc(-c4cnc(C5CC5)s4)c3)C(=O)[C@H]3CC[C@H](NC(=O)Cc4c[nH]cn4)CC3)CC2)cc1C [Compound 31.15, trans-4-(2-(1H-Imidazol-4-yl)acetamido)-N-(3-(2-cyclopropylthiazol-5-yl)phenyl)-N-((trans-4-(4-methoxy-3-methylphenyl)cyclohexyl)methyl) cyclohexanecarboxamide] | ≤ 250
COc1ccc([C@H]2CC[C@H](CN(c3cccc(-c4cnn(C5CC5)c4)c3)C(=O)[C@H]3CC[C@H](NC(=O)COCCCO)CC3)CC2)cc1C [Compound 32, trans-N-(3-(1-Cyclopropyl-1H-pyrazol-4-yl)phenyl)-4-(2-(3-hydroxypropoxy)acetamido)-N-((trans-4-(4-methoxy-3-methylphenyl)cyclohexyl)methyl)cyclohexanecarboxamide] | ≤ 250
COc1ccc([C@H]2CC[C@H](CN(c3cccc(-c4cnn(C5CC5)c4)c3)C(=O)[C@H]3CC[C@H](NC(=O)COCCO)CC3)CC2)cc1C [Compound 32.01, trans-N-(3-(1-Cyclopropyl-1H-pyrazol-4-yl)phenyl)-4-(2-(2-hydroxyethoxy)acetamido)-N-((trans-4-(4-methoxy-3-methylphenyl)cyclohexyl)methyl)cyclohexanecarboxamide] | ≤ 250
COc1ccc([C@H]2CC[C@H](CN(c3cccc(-c4cnc(C5CC5)s4)c3)C(=O)[C@H]3CC[C@H](NC(=O)COCCO)CC3)CC2)cc1C [Compound 32.02, trans-N-(3-(2-Cyclopropylthiazol-5-yl)phenyl)-4-(2-(2-hydroxyethoxy)acetamido)-N-((trans-4-(4-methoxy-3-methylphenyl)cyclohexyl)methyl) cyclohexanecarboxamide] | ≤ 250
